Columns and labels:
mitofusin2 and TOMM20 = test: Western blot of mitofusin2 and TOMM20 in ARPE-19 cells; assay type: cell-based, human; conditions: all concentrations; 48 h post treatment; DMEM 7% FCS
From the text: Representative 5-HT2A Receptor Agonist, R-DOI, Increases Mitochondrial Biogenesis and Quality by Inducing Mitochondrial Fusion at low nM concentrations thereby reversing adverse processes that underlie development and progression of the Pathophysiology of Age-Associated Ocular and Neurodegenerative Diseases. Consistent with the Maintenance of Functional Mitochondria and Mitochondrial Health, Serotonin 2A Receptor Agonism, Like with R-DOI, Increases Enzymatic BioMarkers of Mitochondrial Fusion (Mitofusin2) and Biogenesis (TOMM20). ARPE-19 cells were grown in DMEM 7% FCS containing the indicated concentrations of R-DOI. 48 h post treatment, cell samples were lysed and normalized prior to running western blots to evaluate mitofusin2 and TOMM20 protein expression. […] Mitofusion2 functions to regulate mitochondrial fusion. TOMM20 imports proteins through the outer membrane and is a marker of biogenesis and number.

ARPE-19 cells [1] = test: ATP luciferase assay in ARPE-19 cells; assay type: cell-based, human
ARPE-19 cells [2] = test: ARPE-19 proliferation (DAPI cell number, fold change in growth); assay type: cell-based, human; conditions: ARPE-19, 72 h, R-DOI 0.1 nM or 1 nM
Description: Specific 5-HT2A Receptor Activation via Model Phenethylamines, like R-DOI. […] ARPE-19 cells were plated in nutrient rich media, DMEM, containing 7% dialyzed FCS and then starved in DMEM media containing 0.5% dialyzed FCS. Cells were then changed to 7% dialyzed FCS DMEM media containing physiolocial relevant levels of serotonin at varying concentrations and grown for 72-hours. Cell numbers were determined through DNA staining with DAPI and fold change in growth was determined from baseline readings at 24-hours. To assess if agonists of the 5HT2A receptor could enhance cell health and proliferation specifically through the 5-HT2A receptor, the model 5-HT2A receptor agonist, R-DOI was added at either 0.1 nM or 1 nM. […] Also, included is a summary of physiological serotonin and 5-HT2A receptor agonist/antagonist outcomes on cellular proliferation. This increase in proliferation promotes the formation of a compact RPE-monolayer which is important for maintaining a healthy blood-retinal barrier and can occur with low dose administration of 5-HT2A receptor agonists.
ARPE-19 cells were plated in nutrient rich media, DMEM, containing 7% dialyzed FCS and then starved in DMEM media containing 0.5% dialyzed FCS. Cells were then changed to 7% dialyzed FCS DMEM media containing physiological relevant levels of serotonin at varying concentrations and grown for 72-hours. Cell numbers were determined through DNA staining with DAPI and fold change in growth was determined from baseline readings at 24-hours. To assess if serotonin enhances cell health and proliferation specifically through the 5-HT2A receptor, the 5-HT2A receptor antagonist, M100,907 at 10 nM was included during serotonin induction.

ARPE cells [3] = test: Blue light induced mitochondrial fragmentation in ARPE cells (mitotracker green); assay type: cell-based, human; conditions: 100 nM; 48 hours; hyperglycemic conditions; blue light 400 nm
Description: ARPE cells grown under hyperglycemic conditions were plated and mock treated or treated with R-DOI or 2C-iBu at 100 nM. 48 hours post treatment, mitochondria in live cells were visualized by staining mitochondria with mitotracker green (green). Once stained, live ARPE cells were exposed to focused blue light at 400 nm and the ability of drugs to protect against blue light damage-induced mitochondrial fragmentation was assessed.

A549 cells = test: Cell viability after cumene peroxide oxidative stress (Hoechst / propidium iodide); assay type: cell-based
Description: A549 cells were treated with the indicated concentrations of R-DOI (panel A) or 2C-iBu (panel B) and subsequently exposed to cumene peroxide to oxidatively stress cells. Cell viability was visualized by staining with Hoescht (Blue) to mark total cells (live plus dead) and propidium iodide (red) to mark dead cells.

intracellular H2O2 = test: Intracellular H2O2 (ROS-Glo bioluminescence) in ARPE-19 cells at diabetic glucose concentrations; assay type: cell-based, human; conditions: 10 nM; glucose 5, 10, 20, 30 mM; 72 hours
Description: Hyperglycemic conditions induce increased disease promoting ROS production that is abrogated by low nM concentrations of the Representative 5-HT2A Receptor Agonist. R-DOI Returning to Base-line Homeostatic Levels. ARPE-19 cells were plated using physiological media (HPLM; 7% FCS) overnight prior to starvation (HPLM 0.5% FCS) overnight with or without 10 nM R-DOI. Cells were then replaced with HPLM 7% FCS containing a range of glucose concentrations spanning diabetic blood glucose levels (5 mM, 10 mM, 20 mM, and 30 mM) with or without the addition of 10 nM R-DOI for 72-hours. Cells were then lysed to quantify intracellular H2O2 levels via bioluminescence as described above. Low dose 5-HT2A agonists abrogate the hyperglycemic induced induction od ROS that is pathophysiological for development and progression of neurodegenerative and ocular age-related diseases, especially within diabetic patients, or patients that have conditions that induce increased levels of blood glucose. Pathological glucose concentrations increase intracellular H2O2. 5-HT2AR agonism alleviates glucose-induced intracellular H2O2 at diabetic glucose concentrations.
Evaluating intracellular reactive oxygen species (ROS) levels (FIG. 67). Promega's ROS-Glo H2O2 assay enables researchers to evaluate intracellular ROS levels. […]

ARPE cells [4] = test: Mitochondrial biomass and potential (MitoTracker staining / flow cytometry) in ARPE cells; assay type: cell-based, human; conditions: 10 fold dilutions 100 nM to 0.001 nM; 48 hours
Description: Representative 5-HT2A Receptor Agonist, R-DOI, Increases Mitochondrial Biogenesis and Function at low nM to sub nanomolar concentrations thereby reversing adverse processes that underlie development and progression of the Pathophysiology of Age-Associated Ocular and Neurodegenerative Diseases. ARPE cells were plated and treated with 10 fold dilutions of R-DOI from 100 nM to 0.001 nM. 48 hours post treatment, mitochondrial biomass was assessed either by staining for mitochondria using mitotracker (green, left panel) or via flow cytometry using MitoTracker Red CMOXROS that assesses both mitochondrial biomass and mitochondrial potential.

AMP kinase = AMP kinase activation in treated cells; assay type: cell-based; conditions: low nM concentrations
ARPE cells [5] = test: Mitochondrial function and ATP production by Seahorse in ARPE cells; assay type: cell-based, human; conditions: 10 fold dilutions 100 nM to 0.001 nM; 48 hours
Description: Representative 5-HT2A Receptor Agonist, R-DOI Increases Mitochondrial Function And ATP Production at low nM and sub nanomolar concentrations thereby reversing adverse processes that underlie development and progression of the Pathophysiology of Age-Associated Ocular and Neurodegenerative Diseases. ARPE cells were plated and treated with 10 fold dilutions of R-DOI from 100 nM to 0.001 nM. 48 hours post treatment, mitochondrial function and ATP production was assessed by Seashorse.

COc1cc(C[C@@H](C)N)c(OC)cc1I (single isomer, unassigned) [R-DOI, R enantiomer 2,5-Dimethoxy-4-iodoamphetamine]
Mitofusin 2 protein expression (mitofusin2 and TOMM20): increased expression of Mitofusin 2
TOMM20 protein expression (mitochondrial biomass) (mitofusin2 and TOMM20): increased mitochondrial biomass (TOMM20)
ATP levels relative to Mock treated ARPE-19 cells (ARPE-19 cells [1]; 10 fold dilutions 100 nM to 0.1 nM): Increase Mitochondrial Function And ATP Production
production of ATP (ARPE-19 cells [1]; ARPE WT cells, 24 h after administration): enhanced production of ATP
proliferation of RPE (fold change in growth) (ARPE-19 cells [2]): Stimulate and Restore Healthy Proliferation of RPE
blue light induced mitochondrial fragmentation/damage (ARPE cells [3]): Inhibit Blue Light and Oxidative Stress Induced Mitochondrial Fragmentation/Damage
oxidative stress-induced cell death (A549 cells): protected cells from oxidative stress-induced cell death
hyperglycemia induced ROS production (intracellular H2O2) (intracellular H2O2): abrogated
mitochondrial biomass and mitochondrial potential (ARPE cells [4]): increased both mitochondrial biomass and potential
AMP kinase activation (AMP kinase): activation of AMP kinase
ATP production and mitochondrial respiration (ARPE cells [5]): increased ATP production and mitochondrial respiration
